# According to ChEMBL document CHEMBL3621157, “Design, synthesis and biological evaluation of novel 1,2,4-triazolo and 1,2,4-triazino[4,3-a]quinoxalines as potential anticancer and antimicrobial agents” (2015):
# Experiments:
# Assay type in all cases: functional
# Staphylococcus aureus [1] = assay: Antimicrobial activity against Staphylococcus aureus DSM 1104 incubated at 37 degC for 24 hrs by cup diffusion method
# Bacillus subtilis [2] = assay: Antimicrobial activity against Bacillus subtilis ATCC 6633 incubated at 37 degC for 24 hrs by cup diffusion method
# Pseudomonas aeruginosa [3] = assay: Antimicrobial activity against Pseudomonas aeruginosa ATCC 10145 incubated at 37 degC for 24 hrs by cup diffusion method
# Escherichia coli [4] = assay: Antimicrobial activity against Escherichia coli ATCC 11775 incubated at 37 degC for 24 hrs by cup diffusion method
# Candida albicans [5] = assay: Antimicrobial activity against Candida albicans DSM 70014 incubated at 37 degC for 48 hrs by cup diffusion method
# Staphylococcus aureus [6] = assay: Antimicrobial activity against Staphylococcus aureus DSM 1104 incubated for 24 hrs by two-fold serial broth dilution method; conditions: DSM 1104, 24 h
# Staphylococcus aureus [7] = assay: Antimicrobial activity against Staphylococcus aureus DSM 1104 incubated for 24 hrs followed by transfer of colonies to Muller-Hinton agar plate and measured after 18 hrs by two-fold serial broth dilution method
# Bacillus subtilis [8] = assay: Antimicrobial activity against Bacillus subtilis ATCC 6633 incubated for 24 hrs by two-fold serial broth dilution method; conditions: ATCC 6633, 24 h
# Bacillus subtilis [9] = assay: Antimicrobial activity against Bacillus subtilis ATCC 6633 incubated for 24 hrs followed by transfer of colonies to Muller-Hinton agar plate and measured after 18 hrs by two-fold serial broth dilution method
# Pseudomonas aeruginosa [10] = assay: Antimicrobial activity against Pseudomonas aeruginosa ATCC 10145 incubated for 24 hrs by two-fold serial broth dilution method; conditions: ATCC 10145, 24 h
# Pseudomonas aeruginosa [11] = assay: Antimicrobial activity against Pseudomonas aeruginosa ATCC 10145 incubated for 24 hrs followed by transfer of colonies to Muller-Hinton agar plate and measured after 18 hrs by two-fold serial broth dilution method
# Escherichia coli [12] = assay: Antimicrobial activity against Escherichia coli ATCC 11775 incubated for 24 hrs by two-fold serial broth dilution method; conditions: ATCC 11775, 24 h
# Escherichia coli [13] = assay: Antimicrobial activity against Escherichia coli ATCC 11775 incubated for 24 hrs followed by transfer of colonies to Muller-Hinton agar plate and measured after 18 hrs by two-fold serial broth dilution method
# Candida albicans [14] = assay: Antimicrobial activity against Candida albicans DSM 70014 incubated for 48 hrs by two-fold serial broth dilution method; conditions: DSM 70014, 48 h
# Candida albicans [15] = assay: Antimicrobial activity against Candida albicans DSM 70014 incubated for 48 hrs followed by transfer of colonies to Muller-Hinton agar plate and measured after 18 hrs by two-fold serial broth dilution method
# NCI-H226 = assay: Growth inhibition of human NCI-H226 cells at 10 uM incubated for 48 hrs by sulforhodamine B assay; conditions: NCI-H226, 48 h, read-out: GI
# SNB-75 = assay: Growth inhibition of human SNB75 cells at 10 uM incubated for 48 hrs by sulforhodamine B assay; conditions: SNB-75, 48 h, read-out: GI
# A498 = assay: Growth inhibition of human A498 cells at 10 uM incubated for 48 hrs by sulforhodamine B assay; conditions: A498, 48 h, read-out: GI
# PC-3 = assay: Growth inhibition of human PC3 cells at 10 uM incubated for 48 hrs by sulforhodamine B assay; conditions: PC-3, 48 h, read-out: GI
# UO-31 = assay: Growth inhibition of human UO31 cells at 10 uM incubated for 48 hrs by sulforhodamine B assay; conditions: UO-31, 48 h, read-out: GI
# [16] = Growth inhibition of human HOP92 cells at 10 uM incubated for 48 hrs by sulforhodamine B assay; conditions: HOP-92, 48 h, read-out: GI
# [17] = Growth inhibition of human NCI-ADR-RES cells at 10 uM incubated for 48 hrs by sulforhodamine B assay; conditions: read-out: GI
# MDA-MB-231 = assay: Growth inhibition of human MDA-MB-231 cells at 10 uM incubated for 48 hrs by sulforhodamine B assay; conditions: MDA-MB-231, 48 h, read-out: GI
# [18] = Growth inhibition of human EKVX cells at 10 uM incubated for 48 hrs by sulforhodamine B assay; conditions: read-out: GI
# HCT-116 = assay: Growth inhibition of human HCT116 cells at 10 uM incubated for 48 hrs by sulforhodamine B assay; conditions: HCT-116, 48 h, read-out: GI
# HCT-15 = assay: Growth inhibition of human HCT15 cells at 10 uM incubated for 48 hrs by sulforhodamine B assay; conditions: HCT-15, 48 h, read-out: GI
# CAKI-1 = assay: Growth inhibition of human Caki1 cells at 10 uM incubated for 48 hrs by sulforhodamine B assay; conditions: CAKI-1, 48 h, read-out: GI
# A549 = assay: Growth inhibition of human A549 cells at 10 uM incubated for 48 hrs by sulforhodamine B assay; conditions: A549, 48 h, read-out: GI
# NCI-H23 = assay: Growth inhibition of human NCI-H23 cells at 10 uM incubated for 48 hrs by sulforhodamine B assay; conditions: NCI-H23, 48 h, read-out: GI
# HT-29 = assay: Growth inhibition of human HT-29 cells at 10 uM incubated for 48 hrs by sulforhodamine B assay; conditions: HT-29, 48 h, read-out: GI
# [19] = Growth inhibition of human RXF393 cells at 10 uM incubated for 48 hrs by sulforhodamine B assay; conditions: RXF 393, 48 h, read-out: GI
# SF-268 = assay: Growth inhibition of human SF268 cells at 10 uM incubated for 48 hrs by sulforhodamine B assay; conditions: SF-268, 48 h, read-out: GI
# NCI-H522 = assay: Growth inhibition of human NCI-H522 cells at 10 uM incubated for 48 hrs by sulforhodamine B assay; conditions: NCI-H522, 48 h, read-out: GI
# OVCAR-3 = assay: Growth inhibition of human OVCAR3 cells at 10 uM incubated for 48 hrs by sulforhodamine B assay; conditions: OVCAR-3, 48 h, read-out: GI
MIC (Staphylococcus aureus [6]) [µg/mL],MIC (Bacillus subtilis [8]) [µg/mL],MIC (Pseudomonas aeruginosa [10]) [µg/mL],MIC (Escherichia coli [12]) [µg/mL],MIC (Candida albicans [14]) [µg/mL],Structure (SMILES),inhibition zone (IZ) (Staphylococcus aureus [1]) [mm],inhibition zone (IZ) (Bacillus subtilis [2]) [mm],inhibition zone (IZ) (Pseudomonas aeruginosa [3]) [mm],inhibition zone (IZ) (Escherichia coli [4]) [mm],inhibition zone (IZ) (Candida albicans [5]) [mm],MBC (Staphylococcus aureus [7]) [µg/mL],MBC (Bacillus subtilis [9]) [µg/mL],MBC (Pseudomonas aeruginosa [11]) [µg/mL],MBC (Escherichia coli [13]) [µg/mL],MFC (Candida albicans [15]) [µg/mL],inhibition of growth at 10 µM (SNB-75) [%],inhibition of growth at 10 µM (UO-31) [%],also measured
50,50,50,25,100,c1ccc(Cc2nc3ccccc3n3cnnc23)cc1,17,12,14,12,17,100,50,100,25,200,23.5,22.7,inhibition of growth at 10 µM (NCI-H226): 15.5%; inhibition of growth at 10 µM (A498): 38.7%; inhibition of growth at 10 µM (PC-3): 14.2%
50,50,100,50,100,Cc1nnc2c(Cc3ccccc3)nc3ccccc3n12,12,13,11,12,14,100,100,100,50,200,21.9,–,inhibition of growth at 10 µM [16]: 17.6%; inhibition of growth at 10 µM (NCI-H226): 15.1%; inhibition of growth at 10 µM [17]: 12.6%
50,100,50,100,25,O=[N+]([O-])c1ccc(-c2nnc3c(Cc4ccccc4)nc4ccccc4n23)cc1,14,12,12,14,15,100,100,50,100,50,–,–,–
50,50,100,50,50,Brc1ccc(C2=NN=C3C(Cc4ccccc4)=Nc4ccccc4N3C2)cc1,12,12,12,14,14,50,50,100,50,50,–,–,–
100,50,100,50,50,CCOC(=O)C/C(C)=N\Nc1nc2ccccc2nc1Cc1ccccc1,15,12,12,14,14,100,50,100,100,100,–,15.8,inhibition of growth at 10 µM (A498): 17.8%
100,100,50,100,50,Nc1cc(-c2ccc(Cl)cc2)nn1-c1nc2ccccc2nc1Cc1ccccc1,14,15,12,16,16,100,100,50,100,50,15.6,–,inhibition of growth at 10 µM (NCI-H226): 15.7%; inhibition of growth at 10 µM (MDA-MB-231): 24.9%; inhibition of growth at 10 µM [18]: 21.4%; inhibition of growth at 10 µM (HCT-116): 27.2%; inhibition of growth at 10 µM (HCT-15): 25.6%; inhibition of growth at 10 µM (CAKI-1): 19.3%; inhibition of growth at 10 µM (A549): 22%; inhibition of growth at 10 µM (NCI-H23): 18.5%; inhibition of growth at 10 µM (HT-29): 30.3%; inhibition of growth at 10 µM [19]: 21.3%
100,100,100,100,50,O=c1[nH]nc2c(Cc3ccccc3)nc3ccccc3n12,16,16,12,10,14,200,200,100,100,100,–,35.5,inhibition of growth at 10 µM (A498): 28.6%
25,12.5,25,12.5,50,O=C(O)CCc1nnc2c(Cc3ccccc3)nc3ccccc3n12,13,12,12,15,16,50,25,25,25,100,17.7,12.2,inhibition of growth at 10 µM [16]: 18.9%
100,100,100,25,25,O=C(O)c1ccccc1-c1nnc2c(Cc3ccccc3)nc3ccccc3n12,14,16,12,15,14,200,100,100,50,50,24.4,18,inhibition of growth at 10 µM (SF-268): 14.1%; inhibition of growth at 10 µM (PC-3): 43.9%; inhibition of growth at 10 µM (NCI-H522): 14.6%; inhibition of growth at 10 µM (OVCAR-3): 20.2%
50,50,100,50,25,CCOC(=O)c1nnc2c(Cc3ccccc3)nc3ccccc3n12,14,13,10,12,15,50,100,100,50,50,10.3,15.1,–
50,100,100,100,25,CCOC(=O)Cc1nnc2c(Cc3ccccc3)nc3ccccc3n12,14,14,14,15,12,100,100,100,100,25,–,–,–
–,–,–,–,5,Clc1ccccc1C(c1ccccc1)(c1ccccc1)n1ccnc1 [CLOTRIMAZOLE],–,–,–,–,–,–,–,–,–,–,–,–,–

Structure (SMILES),MIC (Staphylococcus aureus [6]) [µg/mL],MIC (Bacillus subtilis [8]) [µg/mL],MIC (Pseudomonas aeruginosa [10]) [µg/mL],MIC (Escherichia coli [12]) [µg/mL],MIC (Candida albicans [14]) [µg/mL],inhibition zone (IZ) (Staphylococcus aureus [1]) [mm],inhibition zone (IZ) (Bacillus subtilis [2]) [mm],inhibition zone (IZ) (Pseudomonas aeruginosa [3]) [mm],inhibition zone (IZ) (Escherichia coli [4]) [mm],inhibition zone (IZ) (Candida albicans [5]) [mm],MBC (Staphylococcus aureus [7]) [µg/mL],MBC (Bacillus subtilis [9]) [µg/mL],MBC (Pseudomonas aeruginosa [11]) [µg/mL],MBC (Escherichia coli [13]) [µg/mL],MFC (Candida albicans [15]) [µg/mL],inhibition of growth at 10 µM (SNB-75) [%],inhibition of growth at 10 µM (UO-31) [%],also measured
CC1(C)S[C@@H]2[C@H](NC(=O)[C@H](N)c3ccccc3)C(=O)N2[C@H]1C(=O)O [AMPICILLIN],5,12.5,50,10,–,–,–,–,–,–,–,–,–,–,–,–,–,–
